Experimental data: PMC6151726, “Design and Antiproliferative Evaluation of Novel Sulfanilamide Derivatives as Potential Tubulin Polymerization Inhibitors” (Molecules : A Journal of Synthetic Chemistry and Natural …, 2017)
In brackets after ≈: the same amount, converted by molar mass. Like-named read-outs stand apart in the source and are kept apart here.

Experiments:
[1] = tested on: MCF-7 (human breast cancer cell line); assay: MTT antiproliferative assay, MCF-7; format: cell-based; details: MCF7, exposure for 48 h, means ± SDs of three independent experiments
Protocol: (§1) All synthesized sulfonamide-1,2,3-triazole hybrids were evaluated for their anticancer activity against three cancer cell lines: MGC-803 (human gastric cancer cell line), MCF-7 (human breast cancer cell line), and PC-3 (human prostate cancer cell line) using a MTT (4,5-dimethyl-2-thiazolyl)-2,5-diphenyl-2-H-tetrazolium bromide) assay. The well-known tubulin polymerization inhibitor CA-4P was used as a control. In [24], 5-fluorouracil (5-Fu) was selected as the control in the antiproliferative evaluation assay of 1,2,3-triazole derivatives. Therefore, 5-Fu was also used as the reference drug in this MTT assay.
(§2) MGC-803 cells (human gastric cancer), MCF-7 (human breast cancer), PC-3 (human prostate cancer) and GES-1 (human gastric epithelial cell) were cultured in RPMI 1640 medium with 10% FBS and 100 U/mL penicillin and 0.1 mg/mL streptomycin in the 37 °C in an atmosphere containing 5% CO2. All cell lines were purchased from the China Center for Type Culture Collection (CCTCC, Shanghai, China). For pharmacological investigations, 10 mM stock solutions of the tested compounds were prepared with dimethyl sulfoxide (DMSO). […] The MTT assay was prepared according to the previous method.

[2] = tested on: PC-3 (human prostate cancer cell line); assay: MTT antiproliferative assay, PC-3; format: cell-based; details: exposure for 48 h, means ± SDs of three independent experiments
Protocol: as §1, §2

[3] = tested on: MGC-803 (human gastric cancer cell line); assay: MTT antiproliferative assay, MGC-803; format: cell-based; details: exposure for 48 h, means ± SDs of three independent experiments
Protocol: as §1, §2

[4] = tested on: MGC-803, MCF-7 and PC-3 cells; assay: MTT antiproliferative assay, three cancer cell lines together; format: cell-based; details: Homo sapiens; range over MGC-803, MCF-7 and PC-3; read-out: IC50 values ranging over three cell lines
Protocol: as §1, §2

[5] = MTT assay on normal cells, GES-1; format: cell-based; details: GES-1 cells (normal gastric epithelial cell line), normal human gastric epithelial cell line, read-out: inhibitory effect / cytotoxicity against GES-1
Protocol: Compound 11f was further examined for possible inhibitory effects against GES-1 (normal human gastric epithelial cell line).
as §2

tubulin [6] = assay: In vitro tubulin polymerization inhibition assay; format: biochemical; details: 5.6 mg/mL tubulin in PEM buffer, read-out: inhibitory concentration that reduced the polymerized tubulin by 50% (IC50)
Protocol: The inhibitory concentrations that reduced the polymerized tubulin by 50% of CA-4P was 2.40 μM [25]. To investigate whether the synthesized 1,2,3-triazole-sulfonamide hybrids target the tubulin-microtubule system, the in vitro tubulin polymerization inhibition activity of compound 11f was evaluated because of its best antiproliferative activity results among all the tested compounds in the initial cytotoxicity screening. When tubulin was incubated with the tested 1,2,3-triazole-sulfonamide 11f at the indicated concentrations, an increased fluorescence intensity was obvious.
Tubulin polymerization in vitro was assyed with 100 μL samples and monitored by absorbance at 350 nm (Filter A00019x) in 96-well plates with an Appliskan plate reader (Thermo Fisher Scientific, Waltham, MA, USA). An amount of 5.6 mg/mL tubulin was resuspended in PEM buffer (80 mM PIPES (pH 6.9), 1 mM EGTA, 0.5 mM MgCl2, […], 10.2% (v/v) glycerol) and then was preincubated with compound 11f or vehicle DMSO on ice. Data were exported using the Thermo Scientific SkanIt software of the Appliskan (version 2.3) and Excel software was used to generate plots. For convenience, data were normalized to the minimum absorbance value of the initial stable plateau. This tubulin polymerization inhibition assay was measured according to the method originally.

PC3 cells = tested on: PC3 cells; design: method as in PMID 27423028; details: read-out: IC50 against PC3 cells; cited from earlier work
4T1 mammary tumor cells = details: 45 mg/kg; cited from earlier work
CDK2 = tested on: CDK2; design: method as in PMID 28005359; details: cited from earlier work
CDK1 = tested on: CDK1; design: method as in PMID 28005359; details: cited from earlier work
[7] = tested on: HCT116 human colon carcinoma; design: method as in PMID 10508428; details: cell proliferation assay; cited from earlier work
murine leukemia = tested on: murine leukemia; design: method as in PMID 26501246; details: read-out: IC50 against the proliferation of murine leukemia; cited from earlier work
tubulin [8] = tested on: tubulin; design: method as in PMID 24923521; details: read-out: IC50 inhibition of tubulin assembly; cited from earlier work
A2780AD cell line = tested on: A2780AD cell line; design: method as in PMID 28640209; details: read-out: IC50 antiproliferative activity against A2780AD cell line; cited from earlier work

Row | Compound | IC50 [1] | IC50 ([2]; Homo sapiens, 48 h) | IC50 [3] | melting point | further results
1 | O=c1[nH]cc(F)c(=O)[nH]1 [5-Fu, 5-Fluorouracil, reference compound] | 21.2 ± 3.6 µM | 13.9 ± 1.5 µM | 15.6 ± 0.4 µM |  | 
2 | C#CCNS(=O)(=O)c1cccs1 [9a, N-(Prop-2-yn-1-yl)thiophene-2-sulfonamide] | > 100 µM | > 100 µM | > 100 µM |  | 
3 | C#CCNS(=O)(=O)c1ccc2oc(=O)ccc2c1 [9d, 2-Oxo-N-(prop-2-yn-1-yl)-2H-chromene-6-sulfonamide] | > 100 µM | > 100 µM | > 100 µM | 193 to 196 °C | 
4 | C#CCNS(=O)(=O)c1ccc(C)cc1 [9f, 4-Methyl-N-(prop-2-yn-1-yl)benzenesulfonamide] | > 100 µM | > 100 µM | > 100 µM |  | 
5 | O=S(=O)(NCc1cn(Cc2cccc(Oc3ccccc3)c2)nn1)c1cccs1 [11a, N-((1-(3-Phenoxybenzyl)-1H-1,2,3-triazol-4-yl)methyl)thiophene-2-sulfonamide] | 78.5 ± 2.2 µM | 24.6 ± 0.9 µM | 17 ± 1.8 µM | 104 to 106 °C | 
6 | O=S(=O)(NCc1cn(Cc2cccc(Oc3ccccc3)c2)nn1)c1ccc(Cl)s1 [11b, 5-Chloro-N-((1-(3-phenoxybenzyl)-1H-1,2,3-triazol-4-yl)methyl)thiophene-2-sulfonamide] | 49.9 ± 1.2 µM | 19.8 ± 0.6 µM | 15.3 ± 0.8 µM | 110 to 111 °C | 
7 | O=S(=O)(NCc1cn(Cc2cccc(Oc3ccccc3)c2)nn1)c1ccc(Br)s1 [11c, 5-Bromo-N-((1-(3-phenoxybenzyl)-1H-1,2,3-triazol-4-yl)methyl)thiophene-2-sulfonamide] | 34.7 ± 2.6 µM | 49.4 ± 1 µM | 31 ± 2.2 µM | 111 to 112 °C | 
8 | O=c1ccc2cc(S(=O)(=O)NCc3cn(Cc4cccc(Oc5ccccc5)c4)nn3)ccc2o1 [11d, 2-Oxo-N-((1-(3-phenoxybenzyl)-1H-1,2,3-triazol-4-yl)methyl)-2H-chromene-6-sulfonamide] | 36.4 ± 2 µM | 34.1 ± 0.3 µM | 88.8 ± 0.5 µM | 144 to 146 °C | IC50 [4]: 34.1 to 88.8 µM
9 | O=S(=O)(NCc1cn(Cc2cccc(Oc3ccccc3)c2)nn1)c1ccccc1 [11e, N-((1-(3-Phenoxybenzyl)-1H-1,2,3-triazol-4-yl)methyl)benzenesulfonamide] | 39.6 ± 5 µM | 6.4 ± 1.2 µM | 21.7 ± 0.1 µM | 127 to 130 °C | 
10 | Cc1ccc(S(=O)(=O)NCc2cn(Cc3cccc(Oc4ccccc4)c3)nn2)cc1 [11f, 4-Methyl-N-((1-(3-phenoxybenzyl)-1H-1,2,3-triazol-4-yl)methyl)benzenesulfonamide] | 15.7 ± 0.2 µM | 4.08 µM | 13.7 ± 2.9 µM | 118 to 121 °C | IC50 [5]: > 64 µM; IC50 (tubulin [6]): 2.41 µM; IC50 [4]: 4.1 to 15.7 µM; IC50 [2]: 4.1 ± 1.4 µM
11 | CC(C)(C)c1ccc(S(=O)(=O)NCc2cn(Cc3cccc(Oc4ccccc4)c3)nn2)cc1 [11g, 4-(Tert-butyl)-N-((1-(3-phenoxybenzyl)-1H-1,2,3-triazol-4-yl)methyl)benzenesulfonamide] | 54.9 ± 1.7 µM | 7.1 ± 0.5 µM | > 100 µM | 137 to 139 °C | 
12 | Cc1cc(C)c(S(=O)(=O)NCc2cn(Cc3cccc(Oc4ccccc4)c3)nn2)c(C)c1 [11h, 2,4,6-Trimethyl-N-((1-(3-phenoxybenzyl)-1H-1,2,3-triazol-4-yl)methyl)benzenesulfonamide] | 24.6 ± 1.6 µM | 24.7 ± 3 µM | 18.4 ± 0.7 µM | 111 to 113 °C | 
13 | O=S(=O)(NCc1cn(Cc2cccc(Oc3ccccc3)c2)nn1)c1ccccc1Cl [11i, 2-Chloro-N-((1-(3-phenoxybenzyl)-1H-1,2,3-triazol-4-yl)methyl) benzenesulfonamide] | 77.5 ± 0.7 µM | 22.7 ± 0.5 µM | 15.3 ± 0.5 µM | 97 to 99 °C | 
14 | Cc1ccc(S(=O)(=O)NCc2cn(Cc3cccc(C#N)c3)nn2)cc1 [11j, N-((1-(3-Cyanobenzyl)-1H-1,2,3-triazol-4-yl)methyl)-4-methylbenzenesulfonamide] | > 100 µM | > 100 µM | 41.3 ± 2.3 µM | 145 to 147 °C | 
15 | Cc1ccc(S(=O)(=O)NCc2cn(Cc3cccc(C)c3)nn2)cc1 [11k, 4-Methyl-N-((1-(3-methylbenzyl)-1H-1,2,3-triazol-4-yl)methyl)benzenesulfonamide] | > 100 µM | > 100 µM | 75.8 ± 0.6 µM | 145 to 148 °C | 
16 | COc1cccc(Cn2cc(CNS(=O)(=O)c3ccc(C)cc3)nn2)c1 [11l, N-((1-(3-Methoxybenzyl)-1H-1,2,3-triazol-4-yl)methyl)-4-methylbenzenesulfonamide] | > 100 µM | > 100 µM | 77.2 ± 7.8 µM | 112 to 114 °C | 
17 | O=S1(=O)CCCN(S(=O)(=O)c2ccc(-c3cnc(C4CC4)o3)cc2)c2ccccc21 [BA-3P] |  |  |  |  | IC50 (PC3 cells): 5.88 µM
18 | NS(=O)(=O)c1ccc(NC(=O)Nc2cccc([N+](=O)[O-])c2)cc1 [compound 1] |  |  |  |  | formation of metastases by 4T1 mammary tumor cells (4T1 mammary tumor cells): significantly inhibited the formation of metastases
19 | NS(=O)(=O)c1ccc(Nc2nc(-c3cccc(-c4ccccc4)c3)c3nc[nH]c3n2)cc1 [compound 3] |  |  |  |  | IC50 (CDK2): 0.044 µM; fold less active toward CDK1 than CDK2 (CDK1; CDK1 vs CDK2): ~ 2000 fold; IC50 (CDK1): 86 µM
20 | NS(=O)(=O)c1ccc(S(=O)(=O)Nc2cccc3c(Cl)c[nH]c23)cc1 [compound 4, N-(3-chloro-7-indolyl)-1,4-benzenedisulfonamide] |  |  |  |  | IC50 against HCT116 human colon carcinoma [7]: 0.11 µg/mL (≈ 0.285 µM)
21 | Nc1nc(Cl)c2ncn(Cc3cn(C[C@H](OCc4ccccc4)[C@@H](O)P(=O)(OCc4ccccc4)OCc4ccccc4)nn3)c2n1 [compound 5] |  |  |  |  | IC50 (murine leukemia): 21 µM
22 | COc1cc2c(cc1O)CC[C@@H]1[C@@H]2CC[C@@]2(C)[C@H]1CC[C@@]2(O)c1cn(-c2ccc(OC(F)(F)F)cc2)nn1 [compound 7] |  |  |  |  | IC50 (tubulin [8]): 5.9 µM
23 | Quinolin-6-yloxyacetamide |  |  |  |  | IC50 (A2780AD cell line): 0.262 µM
